Test [1] deals with T1, complex I (Homo sapiens, UniProt O75251+O75306+P03886).
T1 construct: gene NDUFS2; native respiratory complex I (whole multi-subunit complex)
Description: spectrophotometric NADH oxidation, rotenone-sensitive complex I activity. Format: biochemical. Conditions: 120 uM NADH, 20 uM oxidized cytochrome c, pH 7.5, 37 °C; Q-site (ubiquinone reduction site), no effect at NADH site.

Test [2] has as its target T2, complex I (bovine heart) (Bos taurus, UniProt P03887+P17694+P42026).
T2 construct: gene NDUFS2; native respiratory complex I (whole multi-subunit complex)
The test is described as above. The format is biochemical. Conditions: 120 uM NADH, 20 uM oxidized cytochrome c, pH 7.5, 37 °C; Q-site (ubiquinone reduction site), no effect at NADH site.

T1 sequence (O75306 34-463): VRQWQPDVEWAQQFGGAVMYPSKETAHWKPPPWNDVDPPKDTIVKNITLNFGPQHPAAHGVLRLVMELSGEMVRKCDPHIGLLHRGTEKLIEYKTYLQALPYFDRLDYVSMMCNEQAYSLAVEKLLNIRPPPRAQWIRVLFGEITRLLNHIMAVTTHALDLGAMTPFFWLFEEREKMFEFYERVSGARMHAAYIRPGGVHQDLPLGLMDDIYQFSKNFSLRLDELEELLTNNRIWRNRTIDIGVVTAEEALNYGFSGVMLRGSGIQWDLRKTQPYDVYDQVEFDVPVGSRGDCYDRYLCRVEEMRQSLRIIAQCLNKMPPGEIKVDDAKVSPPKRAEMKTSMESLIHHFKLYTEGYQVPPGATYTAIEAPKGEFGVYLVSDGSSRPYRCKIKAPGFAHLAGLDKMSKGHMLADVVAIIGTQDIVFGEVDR
T1 sequence (O75251 39-213): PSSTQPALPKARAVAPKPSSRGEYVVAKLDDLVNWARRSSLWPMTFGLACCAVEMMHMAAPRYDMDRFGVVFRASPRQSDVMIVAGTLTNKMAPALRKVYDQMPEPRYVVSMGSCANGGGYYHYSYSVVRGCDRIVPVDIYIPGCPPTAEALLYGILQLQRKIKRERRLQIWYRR
T1 sequence (P03886 whole entry): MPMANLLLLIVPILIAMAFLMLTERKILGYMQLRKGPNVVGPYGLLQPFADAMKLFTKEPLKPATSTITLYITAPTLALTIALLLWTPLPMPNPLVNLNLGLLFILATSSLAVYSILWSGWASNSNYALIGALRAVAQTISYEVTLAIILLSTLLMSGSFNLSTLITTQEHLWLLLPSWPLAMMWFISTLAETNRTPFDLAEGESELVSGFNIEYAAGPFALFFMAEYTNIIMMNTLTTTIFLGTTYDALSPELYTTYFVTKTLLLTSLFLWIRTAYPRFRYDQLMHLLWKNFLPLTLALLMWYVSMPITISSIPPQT
T2 sequence (P17694 34-463): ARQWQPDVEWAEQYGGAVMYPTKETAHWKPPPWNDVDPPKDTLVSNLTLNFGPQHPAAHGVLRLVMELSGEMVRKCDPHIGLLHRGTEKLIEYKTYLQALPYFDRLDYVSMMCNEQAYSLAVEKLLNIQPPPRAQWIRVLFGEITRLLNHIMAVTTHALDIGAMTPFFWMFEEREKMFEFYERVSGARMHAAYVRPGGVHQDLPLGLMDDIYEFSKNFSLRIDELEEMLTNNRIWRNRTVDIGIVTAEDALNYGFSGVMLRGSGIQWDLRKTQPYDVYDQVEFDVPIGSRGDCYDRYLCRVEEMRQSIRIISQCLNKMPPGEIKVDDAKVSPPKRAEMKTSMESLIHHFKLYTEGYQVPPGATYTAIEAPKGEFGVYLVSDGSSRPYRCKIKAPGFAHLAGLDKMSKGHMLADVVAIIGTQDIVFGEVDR
T2 sequence (P42026 38-216): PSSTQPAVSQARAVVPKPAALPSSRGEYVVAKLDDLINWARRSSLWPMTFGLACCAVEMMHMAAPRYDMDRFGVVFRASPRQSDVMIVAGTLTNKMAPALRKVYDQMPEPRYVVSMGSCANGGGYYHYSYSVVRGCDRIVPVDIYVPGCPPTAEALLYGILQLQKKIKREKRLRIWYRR
T2 sequence (P03887 whole entry): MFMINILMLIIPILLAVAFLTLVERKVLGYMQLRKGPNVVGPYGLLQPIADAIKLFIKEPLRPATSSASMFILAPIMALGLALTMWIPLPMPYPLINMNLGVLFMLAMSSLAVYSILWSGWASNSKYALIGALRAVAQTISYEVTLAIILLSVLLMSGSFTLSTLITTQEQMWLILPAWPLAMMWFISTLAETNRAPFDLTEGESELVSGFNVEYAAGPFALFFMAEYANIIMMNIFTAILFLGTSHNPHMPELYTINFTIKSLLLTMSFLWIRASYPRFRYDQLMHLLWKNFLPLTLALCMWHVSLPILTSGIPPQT

With `C[C@@H](C(=O)Nc1ccc(Cl)cc1)[C@H]1CC[C@@H](c2ccnc3ccc(F)cc32)CC1` [BMS-986205], the “complex I activity” value is “dose-dependent decrease of complex I activity in mitochondria from KRAS^G12V/MYC, HEK293T cells and bovine heart” in test [1]; “dose-dependent decrease of complex I activity in mitochondria from KRAS^G12V/MYC, HEK293T cells and bovine heart” in test [2].
